How the values were obtained:
Alternaria brassicae = test: In vivo test on Alternaria brassicae (leaf spot of crucifers); conditions: for effectiveness on Alternaria brassicae: 330 ppm, comparison compounds of WO 01/11965
Protocol: In Vivo Test on Alternaria brassicae (Leaf Spot of Crucifers)
The active ingredient tested is prepared by potter homogenisation in a concentrated suspension type formulation at 100 g/l. This suspension is then diluted with water to obtain the desired active material concentration.
Radish plants (Pernot variety) in starter cups, sown on a 50/50 peat soil-pozzolana substrate and grown at 18-20° C., are treated at the cotyledon stage by spraying with the aqueous suspension described above.
Plants, used as controls, are treated with an aqueous solution not containing the active material.
After 24 hours, the plants are contaminated by spraying them with an aqueous suspension of Alternaria brassicae spores (40,000 spores per cm^3). The spores are collected from a 12-13-day-old culture.
The contaminated radish plants are incubated for 6-7 days at about 18° C., under a humid atmosphere.
Grading is carried out 6 to 7 days after the contamination, in comparison with the control plants.

Botrytis cinerea = test: Effectiveness on Botrytis cinerea; assay type: in vivo; conditions: 330 ppm; comparison compounds of WO 01/11965
Peronospora parasitica = test: Efficacy against Peronospora parasitica; assay type: in vivo; conditions: 330 ppm; comparison compound of WO 01/11965

SMILES | good (at least 50%) [protection] versus control plants (Alternaria brassicae; radish plants (Pernot variety), preventive spray 24 hours before contamination, dose 500 ppm, grading 6 to 7 days after contamination) | effectiveness on Alternaria brassicae (Alternaria brassicae) | effectiveness on Botrytis cinerea (Botrytis cinerea) | efficacy against Peronospora parasitica (Peronospora parasitica)
O=C(NCCc1ncc(Br)cn1)c1ccccc1C(F)(F)F [Compound A-1, N-[2-(5-bromopyrimidin-2-yl)ethyl]-2-(trifluoromethyl)benzamide] | at least 50% | – | – | –
O=C(Cc1cccs1)NCc1ncc(C(F)(F)F)cc1Cl [compound 101, N-{[3-chloro-5-(trifluoromethyl)-2-pyridinyl]methyl}-5-thienylacetamide] | – | poor efficacy | no efficacy | no efficacy
CCNC(=O)C(Cc1ncc(C(F)(F)F)cc1Cl)NC(=O)c1ccccc1 (stereo not shown) [compound 304, N-{1-ethylcarbamoyl-2-[3-chloro-5-(trifluoromethyl)-2-pyridinyl]-ethyl}-benzamide] | – | – | zero effectiveness | –
CCNC(=O)C(Cc1ncc(C(F)(F)F)cc1Cl)NC(=O)c1ccc(Cl)cc1 (stereo not shown) [compound 306, N-{1-ethylcarbamoyl-2-[3-chloro-5-(trifluoromethyl)-2-pyridinyl]ethyl}-4-chlorobenzamide] | – | – | zero effectiveness | –
CCNC(=O)C(Cc1ncc(C(F)(F)F)cc1Cl)NC(=O)c1cccc([N+](=O)[O-])c1 (stereo not shown) [compound 307, N-{1-ethylcarbamoyl-2-[3-chloro-5-(trifluoromethyl)-2-pyridinyl]ethyl}-3-nitrobenzamide] | – | poor effectiveness | zero effectiveness | –
CCNC(=O)C(Cc1ncc(C(F)(F)F)cc1Cl)NC(=O)c1ccccc1Br (stereo not shown) [compound 310, N-{1-ethylcarbamoyl-2-[3-chloro-5-(trifluoromethyl)-2-pyridinyl]ethyl}-2-bromobenzamide] | – | – | zero effectiveness | –
CNC(=O)C(Cc1ncc(C(F)(F)F)cc1Cl)NC(=O)c1ccccc1 (stereo not shown) [compound 314, N-{1-methylcarbamoyl-2-[3-chloro-5-(trifluoromethyl)-2-pyridinyl]ethyl}-benzamide] | – | – | zero effectiveness | –
CNC(=O)C(Cc1ncc(C(F)(F)F)cc1Cl)NC(=O)c1ccc(OC)cc1 (stereo not shown) [compound 315, N-{1-methylcarbamoyl-2-[3-chloro-5-(trifluoromethyl)-2-pyridinyl]ethyl}-4-methoxybenzamide] | – | – | zero effectiveness | –
CNC(=O)C(Cc1ncc(C(F)(F)F)cc1Cl)NC(=O)c1ccc(-c2ccccc2)cc1 (stereo not shown) [compound 316, N-{1-methylcarbamoyl-2-[3-chloro-5-(trifluoromethyl)-2-pyridinyl]-ethyl}-4-phenylbenzamide] | – | poor effectiveness | zero effectiveness | –

Source: US7960391B2, “Heterocyclylethylbenzamide derivatives” (Bayer Cropscience AG, priority 2005, dated 2011)
